# Data from patent US8466104B2, “Therapeutically active alpha MSH analogues” (AbbVie Inc., priority 2005, dated 2013).
# Test system: LPS induced cytokine release and pulmonary hypertension in pigs
# Assay: Inhibition of LPS induced cytokine release and pulmonary hypertension in pigs in vivo (experimental setup 4)
# Parameters: species or system pig
# Conditions: 200 μg/kg single iv bolus
# Description: Inhibition of LPS Induced Cytokine Release and Pulmonary Hypertension in Pigs in vivo.
# Female Landrace pigs (˜30 kg) are fasted overnight but allowed free access to water. Then the pigs are premedicated with intramuscular ketamine (10 mg/kg) and midazolam (0.25 mg/kg). Anesthesia is induced with intravenous ketamine (5 mg/kg). The pigs are orally intubated, and anesthesia is maintained with a continuous intravenous infusion of fentanyl (60 μg/kg/h and midazolam (6 mg/kg/h). The animals are ventilated with a volume-controlled ventilator (Servo 900 ventilator; Siemens Elema, Solna, Sweden) with a positive end-expiratory pressure of 5 cm H2O. Tidal volume is kept at 10-15 ml/kg, and the respiratory rate adjusted (20-25 breaths/min) to maintain normocapnia (arterial carbon dioxide tension [PaCO2] in the range of 34-45 mmHg). Ventilation is performed with oxygen in air aimed tot reach an arterial oxygen tension (PaO2) higher than 105 mmHg. One arterial and 2 venous sheaths are placed in the carotid artery and corresponding veins for infusion, blood pressure measurements through fluid filled catheter, blood sampling and for introducing catheters.
# Localization of the balloon-tipped catheter is determined by observing the characteristic pressure trace on the monitor as it is advance through the right side of the heart into the pulmonary artery as well as by x-ray. […]
substance,measurement,setting,value
Ac-Lys-Lys-Lys-Lys-Lys-Lys-Ser-Tyr-Ser-Met-Glu-His-Phe-Arg-Trp-Gly-Lys-Pro-Val-NH2 (Ac-KKKKKKSYSMEHFRWGKPV-NH2) [a-MSH analogue #1],plasma concentrations of TNFa after LPS infusion,,marked reduction in plasma concentrations of TNFa
same,maximal increase in pulmonary artery pressure (PAP),LPS infusion,8±2 mmHg
